Source: ChEMBL document CHEMBL5465560, “Selectivity Literature for EUbOPEN Chemogenomic Library” (2024)

What was measured:
[1] = target: TRAF2 and NCK-interacting protein kinase (Homo sapiens) (UniProt Q9UKE5); test: Selectivity interaction (KinomeScan (DiscoverX)) EUB0001079a TNIK; settings: at 1 µM
[2] = target: T1, Serine/threonine-protein kinase PLK4 (Homo sapiens) (UniProt O00444); test: Selectivity interaction (KinomeScan (DiscoverX)) EUB0001079a PLK4; settings: at 1 µM
T1 sequence (whole entry): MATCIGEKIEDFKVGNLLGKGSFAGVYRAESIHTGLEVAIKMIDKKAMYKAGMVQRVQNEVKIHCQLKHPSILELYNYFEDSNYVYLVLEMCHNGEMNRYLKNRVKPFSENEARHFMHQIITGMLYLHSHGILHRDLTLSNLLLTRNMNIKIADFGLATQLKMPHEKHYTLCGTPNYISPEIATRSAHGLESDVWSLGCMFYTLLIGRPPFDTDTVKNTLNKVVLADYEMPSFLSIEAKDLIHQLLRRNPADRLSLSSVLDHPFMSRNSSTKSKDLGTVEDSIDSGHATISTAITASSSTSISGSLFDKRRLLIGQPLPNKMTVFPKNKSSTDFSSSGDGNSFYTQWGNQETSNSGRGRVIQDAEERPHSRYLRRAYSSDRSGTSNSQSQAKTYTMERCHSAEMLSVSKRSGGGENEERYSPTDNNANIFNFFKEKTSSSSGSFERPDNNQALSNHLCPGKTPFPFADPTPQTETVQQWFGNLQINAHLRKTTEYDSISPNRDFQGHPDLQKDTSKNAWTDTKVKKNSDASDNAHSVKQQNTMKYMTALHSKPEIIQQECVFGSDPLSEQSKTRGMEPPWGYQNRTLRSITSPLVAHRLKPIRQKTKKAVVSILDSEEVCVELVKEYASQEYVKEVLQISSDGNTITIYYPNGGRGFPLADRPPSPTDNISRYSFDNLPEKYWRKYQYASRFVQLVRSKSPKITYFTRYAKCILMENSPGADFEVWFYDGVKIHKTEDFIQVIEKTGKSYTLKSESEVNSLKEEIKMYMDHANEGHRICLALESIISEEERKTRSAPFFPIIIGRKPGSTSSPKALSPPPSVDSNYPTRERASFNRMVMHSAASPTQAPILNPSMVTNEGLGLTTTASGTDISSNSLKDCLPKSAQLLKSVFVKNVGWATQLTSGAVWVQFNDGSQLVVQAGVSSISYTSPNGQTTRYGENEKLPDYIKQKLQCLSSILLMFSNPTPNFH

[3] = target: T2, 5'-AMP-activated protein kinase catalytic subunit alpha-1 (Homo sapiens, UniProt Q13131); test: Selectivity interaction (ActivX KiNativ screen (kinase selectivity in THP-1 cell lysates)) EUB0000639a PRKAA1; assay type: subcellular; settings: lysate, at 0.01 µM
[4] = target: T3, Tyrosine-protein kinase receptor TYRO3 (Homo sapiens) (UniProt Q06418); test: Selectivity interaction (KinomeScan (DiscoverX)) EUB0000092b TYRO3; settings: at 10 µM
T3 sequence (whole entry): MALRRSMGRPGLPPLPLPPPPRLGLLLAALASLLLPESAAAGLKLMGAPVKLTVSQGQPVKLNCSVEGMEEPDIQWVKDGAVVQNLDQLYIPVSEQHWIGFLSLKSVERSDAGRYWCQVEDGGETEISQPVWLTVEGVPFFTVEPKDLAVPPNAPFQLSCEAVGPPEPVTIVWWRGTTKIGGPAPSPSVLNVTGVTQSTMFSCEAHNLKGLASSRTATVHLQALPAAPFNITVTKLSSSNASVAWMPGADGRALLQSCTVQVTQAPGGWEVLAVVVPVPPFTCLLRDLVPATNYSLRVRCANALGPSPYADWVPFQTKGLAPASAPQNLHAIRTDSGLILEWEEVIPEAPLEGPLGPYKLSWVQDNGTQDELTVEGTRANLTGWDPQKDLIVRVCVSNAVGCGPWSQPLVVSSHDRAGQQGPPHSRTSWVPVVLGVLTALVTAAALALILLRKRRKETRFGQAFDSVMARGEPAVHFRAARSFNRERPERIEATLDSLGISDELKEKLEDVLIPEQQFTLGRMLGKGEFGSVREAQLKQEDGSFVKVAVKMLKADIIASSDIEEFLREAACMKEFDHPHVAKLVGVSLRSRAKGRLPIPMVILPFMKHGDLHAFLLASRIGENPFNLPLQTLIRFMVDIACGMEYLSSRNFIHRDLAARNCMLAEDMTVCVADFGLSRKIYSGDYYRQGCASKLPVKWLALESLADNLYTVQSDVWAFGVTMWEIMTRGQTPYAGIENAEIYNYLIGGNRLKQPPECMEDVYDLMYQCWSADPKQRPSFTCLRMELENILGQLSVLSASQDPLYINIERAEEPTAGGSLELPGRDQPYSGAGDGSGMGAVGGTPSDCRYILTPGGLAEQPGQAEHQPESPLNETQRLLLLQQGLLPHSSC

[5] = target: T2, 5'-AMP-activated protein kinase catalytic subunit alpha-1; test: Selectivity interaction (Kinase screening (Upstate/Millipore)) EUB0000604a PRKAA1
[6] = target: T4, Serine/threonine-protein kinase RIO3 (Homo sapiens) (UniProt O14730); test: Selectivity interaction (KinomeScan (DiscoverX)) EUB0000618a RIOK3; settings: at 10 µM
T4 sequence (whole entry): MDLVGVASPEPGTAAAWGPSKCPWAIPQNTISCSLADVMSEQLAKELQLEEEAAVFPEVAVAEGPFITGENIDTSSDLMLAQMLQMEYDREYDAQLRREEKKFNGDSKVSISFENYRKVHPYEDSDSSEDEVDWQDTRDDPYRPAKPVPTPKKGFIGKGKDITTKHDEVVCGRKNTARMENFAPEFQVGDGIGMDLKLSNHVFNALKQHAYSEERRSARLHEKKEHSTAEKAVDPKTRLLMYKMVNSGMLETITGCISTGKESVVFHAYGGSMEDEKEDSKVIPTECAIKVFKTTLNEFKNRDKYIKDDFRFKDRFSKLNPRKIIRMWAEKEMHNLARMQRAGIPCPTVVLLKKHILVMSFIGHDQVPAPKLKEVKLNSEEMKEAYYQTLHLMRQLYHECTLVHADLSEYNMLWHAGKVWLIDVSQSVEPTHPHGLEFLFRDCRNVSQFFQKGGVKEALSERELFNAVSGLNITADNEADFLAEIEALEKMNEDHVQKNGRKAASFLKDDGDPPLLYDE

[7] = target: Mitogen-activated protein kinase 10 (Homo sapiens, UniProt P53779); settings: at 10 µM
[8] = target: Ribosomal protein S6 kinase beta-1 (Homo sapiens, UniProt P23443); test: Selectivity interaction (ActivX KiNativ screen (ex vivo kinase selectivity in human PBMCs)) EUB0001619a RPS6KB1; assay type: cell-based; settings: PBMC, at 1 µM
Sequence of Ribosomal protein S6 kinase beta-1 (P23443 whole entry, looked up): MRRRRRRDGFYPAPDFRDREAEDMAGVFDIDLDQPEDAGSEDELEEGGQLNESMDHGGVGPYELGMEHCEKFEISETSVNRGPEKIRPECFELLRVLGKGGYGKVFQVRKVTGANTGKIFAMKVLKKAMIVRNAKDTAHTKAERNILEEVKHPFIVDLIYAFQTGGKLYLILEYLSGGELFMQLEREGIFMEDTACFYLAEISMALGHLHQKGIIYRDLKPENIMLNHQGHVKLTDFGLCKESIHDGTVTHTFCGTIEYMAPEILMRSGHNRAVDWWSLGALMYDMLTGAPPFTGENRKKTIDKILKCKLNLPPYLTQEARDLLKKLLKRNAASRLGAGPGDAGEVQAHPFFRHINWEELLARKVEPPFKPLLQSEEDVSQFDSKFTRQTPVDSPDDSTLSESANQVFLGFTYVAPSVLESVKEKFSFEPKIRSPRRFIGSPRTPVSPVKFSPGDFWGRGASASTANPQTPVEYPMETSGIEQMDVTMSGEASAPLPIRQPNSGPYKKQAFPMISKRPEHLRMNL

T2 sequence (Q13131 whole entry, looked up): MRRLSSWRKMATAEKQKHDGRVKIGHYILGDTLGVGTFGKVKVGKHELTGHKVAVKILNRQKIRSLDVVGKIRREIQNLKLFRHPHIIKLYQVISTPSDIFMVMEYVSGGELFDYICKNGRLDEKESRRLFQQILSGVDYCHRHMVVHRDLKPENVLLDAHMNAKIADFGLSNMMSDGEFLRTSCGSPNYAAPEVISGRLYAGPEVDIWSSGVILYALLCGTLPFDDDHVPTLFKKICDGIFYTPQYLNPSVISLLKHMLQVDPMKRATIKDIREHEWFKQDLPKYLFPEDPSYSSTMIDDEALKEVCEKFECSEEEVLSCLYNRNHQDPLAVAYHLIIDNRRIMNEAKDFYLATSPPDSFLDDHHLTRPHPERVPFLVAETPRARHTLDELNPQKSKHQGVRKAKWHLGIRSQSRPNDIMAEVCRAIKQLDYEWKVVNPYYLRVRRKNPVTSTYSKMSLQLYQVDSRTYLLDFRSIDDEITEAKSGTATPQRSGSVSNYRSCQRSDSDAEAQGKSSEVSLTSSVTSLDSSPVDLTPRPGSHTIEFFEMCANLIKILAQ
Sequence of TRAF2 and NCK-interacting protein kinase (Homo sapiens) (Q9UKE5 whole entry, looked up): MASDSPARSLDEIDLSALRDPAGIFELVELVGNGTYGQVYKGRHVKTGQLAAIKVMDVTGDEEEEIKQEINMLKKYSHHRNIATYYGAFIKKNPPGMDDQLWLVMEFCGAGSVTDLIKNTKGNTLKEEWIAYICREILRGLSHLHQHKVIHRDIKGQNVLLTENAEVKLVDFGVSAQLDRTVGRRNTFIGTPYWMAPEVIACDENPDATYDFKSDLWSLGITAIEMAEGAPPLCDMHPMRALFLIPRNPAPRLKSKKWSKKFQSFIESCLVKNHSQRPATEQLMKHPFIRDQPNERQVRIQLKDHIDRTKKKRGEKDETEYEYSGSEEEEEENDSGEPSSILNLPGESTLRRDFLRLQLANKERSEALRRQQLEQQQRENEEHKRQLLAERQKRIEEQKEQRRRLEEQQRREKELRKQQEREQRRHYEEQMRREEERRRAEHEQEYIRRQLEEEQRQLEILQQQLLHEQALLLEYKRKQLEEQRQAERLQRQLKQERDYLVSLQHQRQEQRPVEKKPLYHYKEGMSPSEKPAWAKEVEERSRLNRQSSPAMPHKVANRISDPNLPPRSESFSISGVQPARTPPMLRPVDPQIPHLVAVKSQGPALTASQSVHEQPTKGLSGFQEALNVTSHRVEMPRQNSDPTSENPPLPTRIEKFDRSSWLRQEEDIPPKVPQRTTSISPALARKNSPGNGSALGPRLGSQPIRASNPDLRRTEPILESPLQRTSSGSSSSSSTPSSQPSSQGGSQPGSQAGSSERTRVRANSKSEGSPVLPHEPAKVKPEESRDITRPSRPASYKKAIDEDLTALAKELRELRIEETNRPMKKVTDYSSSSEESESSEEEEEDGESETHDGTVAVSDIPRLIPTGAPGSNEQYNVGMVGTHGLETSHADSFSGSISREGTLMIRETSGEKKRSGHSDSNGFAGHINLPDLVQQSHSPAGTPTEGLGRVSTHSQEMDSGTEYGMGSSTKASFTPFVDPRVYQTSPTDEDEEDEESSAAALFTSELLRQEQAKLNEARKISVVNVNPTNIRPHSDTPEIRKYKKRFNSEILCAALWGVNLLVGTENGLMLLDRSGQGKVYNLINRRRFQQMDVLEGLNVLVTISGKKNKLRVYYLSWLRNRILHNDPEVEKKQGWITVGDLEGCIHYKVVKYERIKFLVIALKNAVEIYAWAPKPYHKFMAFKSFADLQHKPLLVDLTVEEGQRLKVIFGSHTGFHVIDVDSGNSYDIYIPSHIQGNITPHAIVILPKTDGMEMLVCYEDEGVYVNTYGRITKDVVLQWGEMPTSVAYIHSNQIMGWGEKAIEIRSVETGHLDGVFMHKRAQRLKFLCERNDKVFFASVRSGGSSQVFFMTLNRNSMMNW
Sequence of Mitogen-activated protein kinase 10 (P53779 whole entry): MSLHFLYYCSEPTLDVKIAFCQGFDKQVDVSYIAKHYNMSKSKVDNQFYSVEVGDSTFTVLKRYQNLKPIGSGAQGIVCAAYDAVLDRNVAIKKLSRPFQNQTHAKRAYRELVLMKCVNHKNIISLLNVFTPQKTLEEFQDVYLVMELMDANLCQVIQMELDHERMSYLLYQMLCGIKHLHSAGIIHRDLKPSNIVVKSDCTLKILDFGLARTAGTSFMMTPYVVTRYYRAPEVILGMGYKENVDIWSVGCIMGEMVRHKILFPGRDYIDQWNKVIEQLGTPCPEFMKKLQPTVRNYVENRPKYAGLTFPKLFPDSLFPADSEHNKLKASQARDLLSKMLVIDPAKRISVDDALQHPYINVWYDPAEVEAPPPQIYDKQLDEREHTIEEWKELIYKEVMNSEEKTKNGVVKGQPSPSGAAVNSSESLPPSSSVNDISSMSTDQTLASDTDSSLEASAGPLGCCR

## Nc1cnc(N2CCc3cc(S(=O)(=O)Nc4c(F)cc(Cl)cc4F)cc(N4CCCC4=O)c32)nc1 [TP-020n]
[1]
  % of control: 100%
[2]
  % of control: 100%

## CC[C@@H]1[C@H](F)C(=O)N[C@@H]1COc1nccc2cc(C(N)=O)c(OC)cc12 [ZIMLOVISERTIB]
[3]
  % of inhibition: 14.5%

## CCC(=O)N1CCN(c2ccc(-n3c(=O)ccc4cnc5ccc(-c6cnc7ccccc7c6)cc5c43)cc2C(F)(F)F)CC1
[4]
  % of control: 31%

## Cc1cnc(Nc2ccc(F)cc2Cl)nc1-c1c[nH]c(C(=O)N[C@H](CO)c2cccc(Cl)c2)c1
[5]
  % of inhibition: 5%

## O[C@H]1CC[C@H](Nc2ncc3nc(Nc4c(F)cc(F)cc4F)n([C@H]4CCOC4)c3n2)CC1
[6]
  % of control: 100%

## Cc1cc([C@@H](C)Nc2ccccc2C(=O)O)c2nc(N3CCOCC3)cc(=O)n2c1 [AZD-6482]
[7]
  % of control: 82%

## N#Cc1cccc(-c2c[nH]c3ncnc(N4CCOCC4)c23)c1
[8]
  % of inhibition: 11%
